Counter-ions that a name gives are not always drawn. Like-named read-outs stand apart in the source and are kept apart here.
How the values were obtained:
[1] = system: Human colon tumor cells (Colo205); assay: Cell growth inhibition assay (CellTiter-Glo), Colo205; format: cell-based
Experimental: Human colon tumor cells (Colo205) were cultured in RPMI (Mediatech 50-020-PB) containing 10% FBS and 1% penicillin-streptomycin.
The next day, compounds were diluted as follow: For 96-well assays, 13.5 μL of compound in DMSO were diluted using nine (9) serial 1:3 dilutions of 4.5 μL in 9 μL of DMSO. Medium (270 μL/well of RPMI with 10% FBS and 1% penicillin-streptomycin) was added to the plates. Aliquots (7 μL) were added to cells in the final assay giving a final DMSO concentration of 0.2%. For 384-well assays, 15 μL of compound in DMSO were diluted using nine (9) serial 1:3 dilutions of 5 μL in 10 μL of DMSO, followed by a further dilution of 5 μL of compound with 95 μL of medium, of which 2 μL were added to cells in the final assay giving a final DMSO concentration of 0.2%. Cells were incubated at 37° C., 5% CO2 for 3 days.
Total ATP was measured (as a surrogate estimate of cell number) using CellTiter-Glo® reagent (Promega G7571). Briefly, plates were removed from the incubator and allowed to equilibrate to room temperature for 30 minutes. CellTiter-Glo® (25 μL or 55 μL for 384-well or 96-well assays, respectively) reagent was added to each well and plates were shaken on an orbital plate shaker for 2 minutes. Plates were incubated without shaking for a further 30 minutes and read on an LJL Analyst GT reader in luminometer mode with an integration time of 0.5 seconds per well. Percent inhibition of cell growth was calculated relative to DMSO vehicle-treated control wells.

[2] = biological target: T1, BRAFV600E full-length (amino acids 2-766) (Homo sapiens, UniProt P15056, V600E); assay: B-Raf Accelerated MEK ATPase assay (BRAMA); format: biochemical; settings: categorized
T1 construct: His6-tagged BRAFV600E full-length (amino acids 2-766); His6; made in house; host or cells: baculovirus expression system (insect cells)
Outline: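 Coupled-enzyme readout: ADP generated by MEK-mediated ATP hydrolysis, uncoupled from ERK phosphorylation, is linked to NADH oxidation through pyruvate kinase and lactate dehydrogenase.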

[3] = system: Human melanoma cancer cells (SK-MEL-28); assay: Cell growth inhibition assay (CellTiter-Glo), SK-MEL-28; format: cell-based
[4] = COLO 205, 72 h, Table 2a, 3 days incubation, read-out: Activity in Colo205 Tumor Cells
[5] = COLO 205, Table 2b, later runs, average for the one or more runs, categorized, read-out: IC50 for Colo205
[6] = B-Raf Activity, Table 1a, highest pIC50 for the one or more runs
[7] = Table 1b, later runs, average pIC50 for the one or more runs, read-out: B-Raf pIC50 (converted)
[8] = SK-MEL-28, 72 h, Table 3a, 3 days incubation, read-out: Activity in SK-MEL-28 Tumor Cells
[9] = SK-MEL-28, Table 3b, later runs, average for the one or more runs, categorized, read-out: IC50 for SK-MEL-28
[10] = B-Raf pIC50, Table 1b, later runs, average pIC50 for the one or more runs

T1 sequence (P15056 2-766 V600E): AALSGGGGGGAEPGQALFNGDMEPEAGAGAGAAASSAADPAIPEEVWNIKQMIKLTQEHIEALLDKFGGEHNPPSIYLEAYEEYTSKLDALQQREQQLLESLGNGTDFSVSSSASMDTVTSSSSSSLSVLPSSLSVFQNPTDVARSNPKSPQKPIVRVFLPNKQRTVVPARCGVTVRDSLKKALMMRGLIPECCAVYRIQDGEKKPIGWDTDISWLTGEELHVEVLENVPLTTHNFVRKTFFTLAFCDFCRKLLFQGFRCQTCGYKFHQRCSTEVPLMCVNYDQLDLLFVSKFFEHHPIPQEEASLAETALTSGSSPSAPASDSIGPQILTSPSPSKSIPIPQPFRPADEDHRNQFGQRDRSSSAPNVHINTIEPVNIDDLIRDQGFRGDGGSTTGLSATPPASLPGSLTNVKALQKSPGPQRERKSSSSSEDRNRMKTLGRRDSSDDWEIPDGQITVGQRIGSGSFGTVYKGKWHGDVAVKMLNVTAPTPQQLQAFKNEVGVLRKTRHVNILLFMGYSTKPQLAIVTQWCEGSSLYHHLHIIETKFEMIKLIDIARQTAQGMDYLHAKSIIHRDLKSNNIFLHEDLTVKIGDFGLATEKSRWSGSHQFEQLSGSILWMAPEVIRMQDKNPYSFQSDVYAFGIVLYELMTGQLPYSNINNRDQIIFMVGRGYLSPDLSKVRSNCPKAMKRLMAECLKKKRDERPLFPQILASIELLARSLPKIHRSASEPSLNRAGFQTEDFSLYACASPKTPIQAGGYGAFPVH

Structure (SMILES) | IC50 [1, 4] [nM] | IC50 [1, 5] [nM] | IC50 [2, 6] [nM] | IC50 [2, 7] [nM] | IC50 [3, 8] [nM] | IC50 [3, 9] [nM] | IC50 [2, 10] [nM]
CC(C)CNc1nccc(-c2sc(N3CCOCC3)nc2-c2cccc(NS(=O)(=O)c3cc(F)ccc3F)c2Cl)n1 [Example 22, N-{2-Chloro-3-[5-{2-[(2-methylpropyl)amino]-4-pyrimidinyl}-2-(4-morpholinyl)-1,3-thiazol-4-yl]phenyl}-2,5-difluorobenzenesulfonamide] | < 100 | < 100 | < 100 | 3.16 to 31.6 | < 100 | < 100 | 
CC(C)CNc1nccc(-c2sc(C(C)(C)C)nc2-c2cccc(NS(=O)(=O)c3cc(F)ccc3F)c2Cl)n1 [Example 23, N-[2-Chloro-3-(2-(1,1-dimethylethyl)-5-{2-[(2-methylpropyl)amino]-4-pyrimidinyl}-1,3-thiazol-4-yl)phenyl]-2,5-difluorobenzenesulfonamide] | 100 to 1000 | 100 to 1000 | < 100 | 3.16 to 31.6 | 100 to 1000 | 100 to 1000 | 
O=S(=O)(Nc1cccc(-c2nc(N3CCOCC3)sc2-c2ccncn2)c1Cl)c1c(F)cccc1F [Example 27, N-{2-Chloro-3-[2-(4-morpholinyl)-5-(4-pyrimidinyl)-1,3-thiazol-4-yl]phenyl}-2,6-difluorobenzenesulfonamide] | 100 to 1000 | 100 to 1000 | < 100 | 3.16 to 31.6 | 100 to 1000 | 100 to 1000 | 
Cc1nccc(-c2sc(N3CCOCC3)nc2-c2cccc(NS(=O)(=O)c3cc(F)ccc3F)c2Cl)n1 [Example 28, N-{2-Chloro-3-[5-(2-methyl-4-pyrimidinyl)-2-(4-morpholinyl)-1,3-thiazol-4-yl]phenyl}-2,5-difluorobenzenesulfonamide] | < 100 | < 100 | < 100 | 3.16 to 31.6 | < 100 | < 100 | 
CC(C)c1nc(-c2ccc(F)c(NS(=O)(=O)c3ccc(F)cc3F)c2)c(-c2ccnc(NCCS(C)(=O)=O)n2)s1 [Example 29, 2,4-Difluoro-N-{2-fluoro-5-[2-(1-methylethyl)-5-(2-{[2-(methylsulfonyl)ethyl]amino}-4-pyrimidinyl)-1,3-thiazol-4-yl]phenyl}benzenesulfonamide] | 100 to 1000 | 100 to 1000 | < 100 | 3.16 to 31.6 | 100 to 1000 | 100 to 1000 | 
CC(C)c1nc(-c2cccc(NS(=O)(=O)c3ccco3)c2)c(-c2ccnc(NCCS(C)(=O)=O)n2)s1 [Example 30, N-{3-[2-(1-Methylethyl)-5-(2-{[2-(methylsulfonyl)ethyl]amino}-4-pyrimidinyl)-1,3-thiazol-4-yl]phenyl}-2-furansulfonamide] | < 100 | < 100 | < 100 |  | < 100 | < 100 | ≤ 3.16
CC(C)c1nc(-c2cccc(NS(=O)(=O)c3cccs3)c2)c(-c2ccnc(NCCS(C)(=O)=O)n2)s1 [Example 31, N-{3-[2-(1-Methylethyl)-5-(2-{[2-(methylsulfonyl)ethyl]amino}-4-pyrimidinyl)-1,3-thiazol-4-yl]phenyl}-2-thiophenesulfonamide] | < 100 | < 100 | < 100 |  | < 100 | < 100 | ≤ 3.16
CS(=O)(=O)CCNc1nccc(-c2sc(N3CCCC3)nc2-c2cccc(NS(=O)(=O)c3c(F)cccc3F)c2)n1 [Example 32, 2,6-Difluoro-N-{3-[5-(2-{[2-(methylsulfonyl)ethyl]amino}-4-pyrimidinyl)-2-(1-pyrrolidinyl)-1,3-thiazol-4-yl]phenyl}benzenesulfonamide] | < 100 | < 100 | < 100 |  | < 100 | < 100 | ≤ 3.16
CC(C)c1nc(-c2cccc(NS(=O)(=O)c3cccnc3)c2)c(-c2ccnc(NCCS(C)(=O)=O)n2)s1 [Example 33, N-{3-[2-(1-Methylethyl)-5-(2-{[2-(methylsulfonyl)ethyl]amino}-4-pyrimidinyl)-1,3-thiazol-4-yl]phenyl}-3-pyridinesulfonamide] | < 100 | < 100 | < 100 |  | < 100 | < 100 | ≤ 3.16
CC(C)c1nc(-c2ccc(F)c(NS(=O)(=O)c3ccco3)c2)c(-c2ccnc(NCCS(C)(=O)=O)n2)s1 [Example 34, N-{2-Fluoro-5-[2-(1-methylethyl)-5-(2-{[2-(methylsulfonyl)ethyl]amino}-4-pyrimidinyl)-1,3-thiazol-4-yl]phenyl}-2-furansulfonamide trifluoroacetic acid salt] | > 1000 | 1000 to 10000 | < 100 | 3.16 to 31.6 | > 1000 | 1000 to 10000 | 
CC(C)c1nc(-c2cccc(NS(=O)(=O)c3cnn(C)c3)c2)c(-c2ccnc(NCCS(C)(=O)=O)n2)s1 [Example 35, 1-Methyl-N-{3-[2-(1-methylethyl)-5-(2-{[2-(methylsulfonyl)ethyl]amino}-4-pyrimidinyl)-1,3-thiazol-4-yl]phenyl}-1H-pyrazole-4-sulfonamide trifluoroacetic acid salt] | 100 to 1000 | 100 to 1000 | < 100 | 3.16 to 31.6 | 100 to 1000 | 100 to 1000 | 
CC(C)c1nc(-c2ccc(F)c(NS(=O)(=O)c3cn(C)cn3)c2)c(-c2ccnc(NCCCS(C)(=O)=O)n2)s1 [Example 36, N-{2-Fluoro-5-[2-(1-methylethyl)-5-(2-{[3-(methylsulfonyl)propyl]amino}-4-pyrimidinyl)-1,3-thiazol-4-yl]phenyl}-1-methyl-1H-imidazole-4-sulfonamide] | > 1000 |  | 100 to 1000 |  | > 1000 |  | 31.6 to 1000
CC(C)c1nc(-c2cccc(NS(=O)(=O)N3CCOCC3)c2)c(-c2ccnc(NCCS(C)(=O)=O)n2)s1 [Example 37, N-{3-[2-(1-Methylethyl)-5-(2-{[2-(methylsulfonyl)ethyl]amino}-4-pyrimidinyl)-1,3-thiazol-4-yl]phenyl}-4-morpholinesulfonamide trifluoroacetic acid salt] | 100 to 1000 | 100 to 1000 | 100 to 1000 |  | 100 to 1000 | 100 to 1000 | 31.6 to 1000
COc1ccc(F)cc1S(=O)(=O)Nc1cccc(-c2nc(C(C)C)sc2-c2ccnc(NCC(C)C)n2)c1 [Example 38, 5-Fluoro-N-[3-(2-(1-methylethyl)-5-{2-[(2-methylpropyl)amino]-4-pyrimidinyl}-1,3-thiazol-4-yl)phenyl]-2-(methyloxy)benzenesulfonamide] | > 1000 | 1000 to 10000 | 100 to 1000 |  | > 1000 | 1000 to 10000 | 31.6 to 1000
Cc1ccccc1S(=O)(=O)Nc1cccc(-c2nc(C(C)C)sc2-c2ccnc(NCC(C)C)n2)c1F [Example 39, N-[2-Fluoro-3-(2-(1-methylethyl)-5-{2-[(2-methylpropyl)amino]-4-pyrimidinyl}-1,3-thiazol-4-yl)phenyl]-2-methylbenzenesulfonamide] | 100 to 1000 | 100 to 1000 | < 100 | 3.16 to 31.6 | 100 to 1000 | 100 to 1000 | 
CC(C)c1nc(-c2cccc(NS(=O)(=O)c3nccs3)c2F)c(-c2ccnc(NC3CCN(S(C)(=O)=O)CC3)n2)s1 [Example 40, N-{2-Fluoro-3-[2-(1-methylethyl)-5-(2-{[1-(methylsulfonyl)-4-piperidinyl]amino}-4-pyrimidinyl)-1,3-thiazol-4-yl]phenyl}-1,3-thiazole-2-sulfonamide] | 100 to 1000 | 100 to 1000 | < 100 |  | 100 to 1000 | 100 to 1000 | ≤ 3.16
CS(=O)(=O)N1CCC(Nc2nccc(-c3sc(N4CCOCC4)nc3-c3cccc(NS(=O)(=O)c4ccco4)c3F)n2)CC1 [Example 41, N-{2-Fluoro-3-[5-(2-{[1-(methylsulfonyl)-4-piperidinyl]amino}-4-pyrimidinyl)-2-(4-morpholinyl)-1,3-thiazol-4-yl]phenyl}-2-furansulfonamide] | < 100 | < 100 | < 100 |  | < 100 | 100 to 1000 | ≤ 3.16

From patent US7994185B2, “Benzene sulfonamide thiazole and oxazole compounds” (Glaxo Smith Kline LLC, priority 2008, dated 2011)
